In US11691972B2, “Compounds for targeted degradation of BRD9” (C4 Therapeutics, Inc., priority 2020, dated 2023):

Experiments:
BRD9 [1] = target: T1, BRD9 (Homo sapiens, UniProt Q9H8M2); assay: Western blot of endogenous BRD9 degradation in A204, HS-SY-II, SW982 and Yamato SS cells; type: cell-based; parameters: endogenous in cells; host or cells: Yamato-SS (human synovial sarcoma); settings: SW982, Yamato SS cells, 6 hours, FIG. 15
T1 sequence (Q9H8M2 1-597): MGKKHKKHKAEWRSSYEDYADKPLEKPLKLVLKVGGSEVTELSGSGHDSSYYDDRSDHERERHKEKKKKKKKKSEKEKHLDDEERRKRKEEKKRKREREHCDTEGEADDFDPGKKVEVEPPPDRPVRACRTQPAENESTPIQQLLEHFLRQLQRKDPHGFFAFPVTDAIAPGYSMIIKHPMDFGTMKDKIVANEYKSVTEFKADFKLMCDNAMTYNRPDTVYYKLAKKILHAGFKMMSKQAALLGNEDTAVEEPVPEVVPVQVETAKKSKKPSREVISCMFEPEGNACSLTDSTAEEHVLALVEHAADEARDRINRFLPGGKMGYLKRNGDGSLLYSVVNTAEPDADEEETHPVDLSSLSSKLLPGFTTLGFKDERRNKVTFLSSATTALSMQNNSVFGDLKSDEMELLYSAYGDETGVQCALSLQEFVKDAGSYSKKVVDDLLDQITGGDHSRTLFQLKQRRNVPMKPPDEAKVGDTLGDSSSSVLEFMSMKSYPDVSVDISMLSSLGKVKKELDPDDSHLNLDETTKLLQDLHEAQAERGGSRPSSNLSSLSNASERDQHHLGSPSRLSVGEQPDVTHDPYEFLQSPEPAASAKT
Experimental: The top left represents the malignant human rhabdoid tumor (A204), top right represents the human synovial sarcoma (HS-SY-II), the bottom left represents human soft tissue sarcoma (SW982, BAF wildtype) and the bottom right represents synovial sarcoma (Yamato SS), all via western blot.
Cells were plated at 500,000 cells/well in a 6-well plate and allowed to adhere for 16 hours. Each cell line was treated with Compound 176 serially diluted in DMSO for 6 hours. Cell pellets were collected, lysed with RIPA lysis buffer in the presence of protease inhibitors, and run on a 4-12% acrylamide gel for 45 minutes at 150V. Proteins were transferred to a nitrocellulose membrane and incubated with antibodies against BRD9 (1:1000; Cell Signaling Technology, #71232) or Vinculin (1:10,000; EMD, 05-386) overnight with agitation at 4° C. Blots were thrice washed with tris-buffered saline+0.05% tween-20 and incubated with host-directed fluorescently-conjugated antibodies for 1 hour at room temperature. Blots were thrice washed and imaged on a LiCor Odyssey CLx.

BRD9 [2] = target: T1, BRD9; assay: BRD9 binding (Ki)
IKZF1 = IKZF1 (Homo sapiens, UniProt Q13422); assay: IKZF1 degradation; type: cell-based; settings: one value given for IKZF1/SALL4/GSPT1
Chain of IKZF1 (Q13422 whole entry, species assumed): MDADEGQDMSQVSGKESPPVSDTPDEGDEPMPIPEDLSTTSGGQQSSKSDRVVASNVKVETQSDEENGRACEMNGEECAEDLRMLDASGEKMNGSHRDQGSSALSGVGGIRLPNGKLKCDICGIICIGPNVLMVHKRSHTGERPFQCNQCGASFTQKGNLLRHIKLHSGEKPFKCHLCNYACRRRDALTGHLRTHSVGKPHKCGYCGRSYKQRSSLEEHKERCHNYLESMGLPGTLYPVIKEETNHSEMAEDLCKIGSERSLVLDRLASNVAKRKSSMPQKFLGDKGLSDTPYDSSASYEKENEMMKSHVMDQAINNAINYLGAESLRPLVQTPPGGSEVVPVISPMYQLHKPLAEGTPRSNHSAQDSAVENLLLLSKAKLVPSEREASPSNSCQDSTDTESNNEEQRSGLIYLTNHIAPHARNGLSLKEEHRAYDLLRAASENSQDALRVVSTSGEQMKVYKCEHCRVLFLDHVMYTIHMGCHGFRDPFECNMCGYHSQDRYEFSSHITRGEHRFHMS

GSPT1 = GSPT1 (Homo sapiens, UniProt P15170); assay: GSPT1 degradation; type: cell-based; settings: one value given for IKZF1/SALL4/GSPT1
Chain of GSPT1 (P15170 whole entry, species assumed): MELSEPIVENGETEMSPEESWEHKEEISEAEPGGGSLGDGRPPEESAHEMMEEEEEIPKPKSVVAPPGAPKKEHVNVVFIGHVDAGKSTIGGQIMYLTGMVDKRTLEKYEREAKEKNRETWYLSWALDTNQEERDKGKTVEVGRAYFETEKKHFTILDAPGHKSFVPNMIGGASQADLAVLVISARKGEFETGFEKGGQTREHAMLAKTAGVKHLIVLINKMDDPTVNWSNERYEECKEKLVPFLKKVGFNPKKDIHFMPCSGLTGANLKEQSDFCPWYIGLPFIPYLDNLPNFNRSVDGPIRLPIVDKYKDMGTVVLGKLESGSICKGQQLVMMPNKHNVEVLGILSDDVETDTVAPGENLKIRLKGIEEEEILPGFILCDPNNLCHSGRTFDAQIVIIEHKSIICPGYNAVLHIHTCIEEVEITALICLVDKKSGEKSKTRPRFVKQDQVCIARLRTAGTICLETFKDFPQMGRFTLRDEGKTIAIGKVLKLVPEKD

Caco-2 permeability = type: in vitro ADME; settings: human

COc1cc(-c2cn(C)c(=O)c(C)c2C)cc(OC)c1CN1CCC(N2CCN(c3ccc(NC4CCC(=O)NC4=O)cc3F)CC2)C(F)(F)C1 (single isomer, unassigned) [Compound 176, 3-[4-[4-[1-[[2,6-dimethoxy-4-(1,4,5-trimethyl-6-oxo-3-pyridyl)phenyl]methyl]-3,3-difluoro-4-piperidyl]piperazin-1-yl]-3-fluoro-anilino]piperidine-2,6-dione]
degradation of alpha BRD9, western blot (BRD9 [1]): dose dependent degradation of alpha BRD9

COc1cc(-c2cn(C)c(=O)c(C)c2C)cc(OC)c1CN1CCC(N2CCN(c3ccc(NC4CCC(=O)NC4=O)cc3F)CC2)C(F)(F)C1 (stereo not shown) [Compound 172, 3-[4-[4-[1-[[2,6-dimethoxy-4-(1,4,5-trimethyl-6-oxo-3-pyridyl)phenyl]methyl]-3,3-difluoro-4-piperidyl]piperazin-1-yl]-3-fluoro-anilino]piperidine-2,6-dione]
Ki (BRD9 [2]): 0.082 µM | DC50 (IKZF1): > 9.99 µM | DC50 (GSPT1): > 9.99 µM | efflux ratio (Caco-2 permeability): 2.64 | Papp A→B (Caco-2 permeability; A-B): 71 nm/s | Papp B→A (Caco-2 permeability; B-A): 187 nm/s
